In brackets after ≈: the same amount, converted by molar mass.
Key:
[1] = Binding affinity to FLAG/His-tagged Keap1 (unknown origin)/biotinylated full-length FLAG/His/Tev/Avi-tagged Cul3 (unknown origin) expressed in baculovirus infected Sf9 insect cells measured after 1 hr by TR-FRET assay; parameters: species or system Homo sapiens
Keap1/Nrf2 = Keap1/Nrf2 (Homo sapiens, UniProt Q14145+Q16236); assay: Binding affinity to FLAG/His-tagged Keap1 (unknown origin)/biotinylated full-length FLAG/His/Tev/Avi-tagged NRF2 (unknown origin) expressed in baculovirus infected Sf9 insect cells measured after 1 hr by TR-FRET assay
Keap1/Nrf2, sequence (Q16236 whole entry): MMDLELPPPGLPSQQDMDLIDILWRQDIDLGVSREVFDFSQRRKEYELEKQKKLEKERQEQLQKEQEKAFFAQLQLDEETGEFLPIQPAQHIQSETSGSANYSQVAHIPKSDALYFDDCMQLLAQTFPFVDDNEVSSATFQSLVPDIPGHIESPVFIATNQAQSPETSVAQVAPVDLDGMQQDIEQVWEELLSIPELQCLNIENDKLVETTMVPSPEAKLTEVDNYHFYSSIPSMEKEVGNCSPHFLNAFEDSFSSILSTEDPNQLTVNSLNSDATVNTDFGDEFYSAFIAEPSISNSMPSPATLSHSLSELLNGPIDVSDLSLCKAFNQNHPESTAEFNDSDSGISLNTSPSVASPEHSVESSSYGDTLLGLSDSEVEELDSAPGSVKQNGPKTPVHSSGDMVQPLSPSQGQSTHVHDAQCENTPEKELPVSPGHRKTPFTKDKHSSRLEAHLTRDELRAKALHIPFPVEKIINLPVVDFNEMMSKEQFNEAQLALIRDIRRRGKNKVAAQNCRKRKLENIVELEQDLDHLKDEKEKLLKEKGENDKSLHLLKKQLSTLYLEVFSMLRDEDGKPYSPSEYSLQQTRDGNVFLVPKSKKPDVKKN
Keap1/Nrf2, sequence (Q14145 whole entry): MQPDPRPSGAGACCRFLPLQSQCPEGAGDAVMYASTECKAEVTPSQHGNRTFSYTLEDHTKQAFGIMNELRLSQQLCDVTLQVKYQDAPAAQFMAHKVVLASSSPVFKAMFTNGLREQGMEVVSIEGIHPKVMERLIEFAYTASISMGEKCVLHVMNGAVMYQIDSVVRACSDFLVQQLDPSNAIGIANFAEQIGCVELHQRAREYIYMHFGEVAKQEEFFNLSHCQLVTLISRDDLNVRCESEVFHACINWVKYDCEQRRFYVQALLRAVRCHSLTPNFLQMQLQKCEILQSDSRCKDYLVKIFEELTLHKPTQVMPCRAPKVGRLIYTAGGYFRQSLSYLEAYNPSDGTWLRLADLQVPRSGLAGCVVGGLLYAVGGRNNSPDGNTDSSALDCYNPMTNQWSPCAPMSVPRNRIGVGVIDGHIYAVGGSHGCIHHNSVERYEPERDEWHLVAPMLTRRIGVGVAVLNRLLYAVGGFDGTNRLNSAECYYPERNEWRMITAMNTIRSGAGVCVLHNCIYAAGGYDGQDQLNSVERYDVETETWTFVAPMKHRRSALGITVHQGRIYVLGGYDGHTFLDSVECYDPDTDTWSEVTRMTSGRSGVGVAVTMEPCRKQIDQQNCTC

Homo sapiens = species: Homo sapiens; assay: Activation of Keap1/Cul3/Nrf2 in NHBE cells assessed as induction of HO-1 gene expression at 10 uM after 24 hrs by RT-PCR analysis relative to SFN; assay type: cell-based
[2] = Kinetic solubility of the compound at pH 7.4 by CLND method; assay type: physicochemical; conditions: buffer, read-out: Kinetic_solubility
[3] = Lipophilicity, log D of the compound at pH 7.4 by chromatographic method; assay type: physicochemical; conditions: buffer

Row | Structure (SMILES) | pIC50 [1] | IC50 (Keap1/Nrf2) | fold change (FC) (Homo sapiens) | solubility kinetic [2] | chromatographic logD [3]
1 | O=C(NCCCCN=C=S)OCc1ccncc1 | 4.6 | 39.8 µM | 13.3 | 354 µM (≈ 93.9 µg/mL) | 3.5
2 | S=C=NCCN1CCSCC1 | < 4 | > 100 µM | 0.21 | ≥ 367 µM | 4.93
3 | O=C(NCCCCN=C=S)Nc1ccncc1 | 4.7 | 31.6 µM | 15.3 | 400 µM (≈ 100 µg/mL) | 2.6
4 | C[S+]([O-])CCCCNC(=S)SCCNC(=O)OC(C)(C)C (stereo not given) | < 4 | > 100 µM | 0.58 | ≥ 432 µM | 3.12
5 | COC(=O)C(CS(=O)(=O)CCCCN=C=S)NC(C)=O (stereo not given) | 4.3 | > 100 µM | 0.16 | ≥ 444 µM | 2.44
6 | O=S1(=O)CCN(CCN=C=S)CC1 | < 4 | > 100 µM | 0.19 | ≥ 274 µM | 2.33
7 | CC(C)(C)OC(=O)N1CCC(SC(=O)NCCCCNC(=S)SC2CCN(C(=O)OC(C)(C)C)CC2)CC1 | < 4 | > 100 µM | 4.08 | 9 µM (≈ 5.32 µg/mL) | 7.89
8 | CC(C)(C)OC(=O)N1CCC(SC(=S)NCCCCNC(=O)OCc2ccccn2)CC1 | < 4 | > 100 µM | 1.47 | 80 µM (≈ 38.6 µg/mL) | 5.67
9 | CN1CCC(SC(=S)NCC2CCS(=O)(=O)C2)CC1 (stereo not given) | < 4 | > 100 µM | 0.38 | ≥ 331 µM | 1.03
10 | CN1CCC(SC(=S)NCCCCNC(=O)OCc2ccccc2)CC1 | 5.2 | 10 µM | 4.67 | 355 µM (≈ 140 µg/mL) | 3.49
11 | CC(C)(C)OC(=O)N1CCC(SC(=S)NCCCCNC(=O)NC2CCCC2)CC1 | 4.4 | > 100 µM | 27.3 | 53 µM (≈ 24.3 µg/mL) | 6.1
12 | O=C(CCc1ccccc1)NCCCCN=C=S | 4.4 | 25.1 µM | 9.84 | 337 µM (≈ 88.4 µg/mL) | 2.59
13 | CS(=O)(=O)N1CCC(CN=C=S)C1 (stereo not given) | 4.1 | > 100 µM | 0.68 | ≥ 451 µM | 3.22
14 | O=S(=O)(CCCCN=C=S)c1ccccn1 | 4.3 | 31.6 µM | 2.24 | ≥ 331 µM | 3.85
15 | Cl.O=C(NCCCCNC(=S)SC1CCNCC1)Nc1ccncc1 | 4.7 | 50.1 µM | 25.8 | 281 µM | 0.49
16 | COC(=O)C(C[S+]([O-])CCCCN=C=S)NC(C)=O (stereo not given) | < 4 | > 100 µM | 0.11 | 279 µM (≈ 85.5 µg/mL) | 1.61
17 | CN(C)CCC[S+]([O-])CCCCN=C=S (stereo not given) | < 4 | > 100 µM | 0.27 | ≥ 250 µM | 0.81
18 | CCCCNCCSC(=S)NCCCC[S+](C)[O-] (stereo not given) | < 4 | > 100 µM | 0.08 | ≥ 420 µM | 4.34
19 | CN(C)CCCS(=O)(=O)CCCCN=C=S | < 4 | > 100 µM | 0.34 | 210 µM (≈ 55.5 µg/mL) | 1.55

Row | Structure (SMILES) | pIC50 [1] | IC50 (Keap1/Nrf2) | fold change (FC) (Homo sapiens) | solubility kinetic [2] | chromatographic logD [3]
20 | Cn1cc(CCN=C=S)c2ccccc21 | 5.2 | 10 µM | 0.04 | 38 µM (≈ 8.22 µg/mL) | 7.23
21 | CC(=O)N(C)CCS(=O)(=O)CCCCN=C=S | < 4 | > 100 µM | 0.29 | ≥ 340 µM | 2.4
22 | O=C(O)C(F)(F)F.[O-][S+](CCCCN=C=S)CCN1CCOCC1 (stereo not given) | < 4 | > 100 µM | 0.16 | 81 µM | 1.91
23 | C[S+]([O-])CCCCNC(=S)SCc1cccc([N+](=O)[O-])c1 (stereo not given) | < 4 | > 100 µM | 0.39 | 372 µM (≈ 129 µg/mL) | 3.81
24 | C[S+]([O-])CCCCCN=C=S (stereo not given) | 4.1 | > 100 µM | 0.35 | ≥ 458 µM | 3.12
25 | O=S(=O)(CC1(c2ccc(N=C=S)cc2)COC1)c1ccccc1 | 4.3 | 39.8 µM | 0.23 | 9 µM (≈ 3.11 µg/mL) | 4.21
26 | O=C(NCCCCN=C=S)Nc1ccc2nccnc2c1 | 5.1 | 15.8 µM | 13.2 | ≥ 356 µM | 3.13
27 | [O-][S+](CCCCN=C=S)c1ccncc1 (stereo not given) | 4.4 | 15.8 to 25.1 µM | 15.8 to 15.9 | 201 to 224 µM (≈ 48.3 to 53.8 µg/mL) | 2.34 to 3.5
28 | CC(=O)N(C)CC[S+]([O-])CCCCN=C=S (stereo not given) | < 4 | > 100 µM | 0.29 | ≥ 110 µM | 1.51
29 | CN1CCC(SC(=S)NCCCCNC(=O)Nc2cccnc2)CC1 | 4.7 | 39.8 µM | 16 | ≥ 345 µM | 1.11
30 | O=S(=O)(CCCCN=C=S)CCN1CCOCC1 | < 4 | > 100 µM | 0.22 | 273 µM (≈ 79.8 µg/mL) | 2.93
31 | CCNC(=O)N1CCC(SC(=S)NCCCCNC(=O)NCc2ccccc2)CC1 | 4.4 | 63.1 µM | 81.8 | 255 µM (≈ 115 µg/mL) | 3.43
32 | C[S+]([O-])CCCN=C=S (stereo not given) | < 4 | > 100 µM | 0.47 | 331 µM (≈ 54 µg/mL) | 0.85
33 | O=C(NCCCCN=C=S)Nc1cccnc1 | 4.5 | 39.8 µM | 13.6 | ≥ 428 µM | 2.79
34 | O=C(NCCCCN=C=S)NC1CCCC1 | 4.4 | 50.1 µM | 2.66 | 419 µM (≈ 101 µg/mL) | 4.1
35 | O=S(=O)(CCCCN=C=S)c1ccccc1 | 4.6 | 50.1 µM | 4.31 | ≥ 364 µM | 4.92
36 | CC(C)(C)OC(=O)N1CCC(SC(=S)NCCCCNC(=O)Nc2ccc3c(c2)OCO3)CC1 | 4.4 | 50.1 µM | 55.6 | 17 µM (≈ 8.68 µg/mL) | 6.04
37 | O=S(=O)(CC1(N2CCC(CN=C=S)CC2)COC1)c1ccccc1 | 4.7 | 39.8 µM | 2.98 | 341 µM (≈ 125 µg/mL) | 5.41
38 | CC(C)(C)OC(=O)N1CCC(SC(=S)NCCCCNC(=O)Nc2ccc3nccnc3c2)CC1 | 4.8 | 15.8 µM | 100 | 42 µM (≈ 21.8 µg/mL) | 5.02

Reference: ChEMBL document CHEMBL4330129 (Bioorg Med Chem, 2019)
